From ChEMBL document CHEMBL5120866, “Design and Synthesis of Novel Celastrol Derivatives as Potential Anticancer Agents against Gastric Cancer Cells” (J Nat Prod, 2022)
The source made the active and inactive calls. The calls are words filed in the database; no cut-off is given here.

Assays:
BGC-823 [1] = test: Induction of apoptosis in human BGC-823 cells assessed as reduction in total number of cells at 0.15 to 0.6 uM incubated for 24 hrs by Hoechst 33342 staining based flourescence microscopy method; type: functional, cell-based; settings: dose 0.15-0.6 µM
BGC-823 [2] = test: Induction of apoptosis in human BGC-823 cells assessed as necrotic cells at 0.6 uM incubated for 24 hrs by annexin-V-FITC and PI staining based flow cytometry analysis (reference value: 0.6%); type: functional
BGC-823 [3] = test: Antitumor activity against human BGC-823 cells xenografted in athymic BALB/c nude mouse assessed as reduction in mitosis at 1.5 mg/kg, ip measured after 21 days by H and E staining based analysis; type: functional, organism-based; settings: time 21.0 day
BGC-823 [4] = test: Antitumor activity against human BGC-823 cells xenografted in athymic BALB/c nude mouse assessed increase in ROS level in tumor tissue by measuring increase in red fluorescence at 1.5 mg/kg, ip measured after 21 days by DHE staining based fluorescence microscopic analysis; type: functional, organism-based; settings: time 21.0 day
BGC-823 [5] = test: Induction of cell cycle arrest in human BGC-823 cells assessed as accumulation of cells at G0/G1 phase at 0.15 uM incubated for 24 hrs by PI staining based flow cytometry method (reference value: 50.66%); type: functional
BGC-823 [6] = test: Antitumor activity against human BGC-823 cells xenografted in athymic BALB/c nude mouse assessed as tumor growth inhibition rate at 1.5 mg/kg, ip measured every 2 days for 21 days by curson caliper method relative to control; type: functional; settings: BGC-823, 504 h, time 21 day, read-out: TGI
BGC-823 [7] = test: Induction of apoptosis in human BGC-823 cells assessed as early apoptotic cells at 0.3 uM incubated for 24 hrs by annexin-V-FITC and PI staining based flow cytometry analysis (reference value: 2.4%); type: functional
BGC-823 [8] = test: Induction of apoptosis in human BGC-823 cells assessed as necrotic cells at 0.15 uM incubated for 24 hrs by annexin-V-FITC and PI staining based flow cytometry analysis (reference value: 0.6%); type: functional
BGC-823 [9] = test: Induction of apoptosis in human BGC-823 cells assessed as late apoptotic cells at 0.15 uM incubated for 24 hrs by annexin-V-FITC and PI staining based flow cytometry analysis (reference value: 0.6%); type: functional
BGC-823 [10] = test: Induction of mitochondrial dysfunction in human BGC-823 cells assessed as […] by measuring increase in green fluorescence at 0.15 to 0.6 uM incubated for 24 hrs by inverted fluorescent microscopic analysis; type: functional, cell-based; settings: dose 0.15-0.6 µM
BGC-823 [11] = test: Induction of cell cycle arrest in human BGC-823 cells assessed as accumulation of cells at G2/M phase at 0.3 uM incubated for 24 hrs by PI staining based flow cytometry method (reference value: 22.86%); type: functional
BGC-823 [12] = test: Induction of cell cycle arrest in human BGC-823 cells assessed as accumulation of cells at G2/M phase at 0.6 uM incubated for 24 hrs by PI staining based flow cytometry method (reference value: 22.86%); type: functional
[13] = Toxicity in athymic BALB/c nude mouse assessed as effect on heart at 1.5 mg/kg, ip measured after 21 days by H and E staining based histopathological analysis; type: organism-based; settings: in vivo, 504 h, time 21 day
HCT-116 = test: Antiproliferative activity against human HCT-116 cells assessed as cell growth inhibition incubated for 48 hrs by MTT assay; type: functional, cell-based; settings: HCT-116, 48 h
BGC-823 [14] = test: Induction of apoptosis in human BGC-823 cells assessed as necrotic cells at 0.3 uM incubated for 24 hrs by annexin-V-FITC and PI staining based flow cytometry analysis (reference value: 0.6%); type: functional
[15] = Toxicity in athymic BALB/c nude mouse assessed as effect on liver at 1.5 mg/kg, ip measured after 21 days by H and E staining based histopathological analysis; type: organism-based; settings: in vivo, 504 h, time 21 day
BGC-823 [16] = test: Induction of apoptosis in human BGC-823 cells assessed as increase in cleaved-caspase 9 expression at 0.15 to 0.6 uM incubated for 24 hrs by Western blot analysis; type: functional, cell-based; settings: dose 0.15-0.6 µM
BGC-823 [17] = test: Induction of cell cycle arrest in human BGC-823 cells assessed as accumulation of cells at G2/M phase at 0.15 uM incubated for 24 hrs by PI staining based flow cytometry method (reference value: 22.86%); type: functional
BGC-823 [18] = test: Antiproliferative activity against human BGC-823 cells assessed as cell growth inhibition at 0.5 uM incubated for 48 hrs by MTT assay relative to control; type: functional
BGC-823 [19] = test: Induction of cell cycle arrest in human BGC-823 cells assessed as accumulation of cells at S phase at 0.3 uM incubated for 24 hrs by PI staining based flow cytometry method (reference value: 26.01%); type: functional
BGC-823 [20] = test: Induction of apoptosis in human BGC-823 cells assessed as early apoptotic cells at 0.6 uM incubated for 24 hrs by annexin-V-FITC and PI staining based flow cytometry analysis (reference value: 2.4%); type: functional
BGC-823 [21] = test: Induction of apoptosis in human BGC-823 cells assessed as viable cells at 0.6 uM incubated for 24 hrs by annexin-V-FITC and PI staining based flow cytometry analysis (reference value: 96.3%); type: functional; settings: read-out: Activity
BGC-823 [22] = test: Induction of apoptosis in human BGC-823 cells assessed as viable cells at 0.3 uM incubated for 24 hrs by annexin-V-FITC and PI staining based flow cytometry analysis (reference value: 96.3%); type: functional; settings: read-out: Activity
HeLa = test: Antiproliferative activity against human HeLa cells assessed as cell growth inhibition incubated for 48 hrs by MTT assay; type: functional, cell-based
BGC-823 [23] = test: Induction of JNK phosphorylation in human BGC-823 cells at 0.15 to 0.6 uM incubated for 24 hrs by Western blot analysis; type: functional, cell-based; settings: dose 0.15-0.6 µM
BGC-823 [24] = test: Induction of apoptosis in human BGC-823 cells assessed as viable cells at 0.15 uM incubated for 24 hrs by annexin-V-FITC and PI staining based flow cytometry analysis (reference value: 96.3%); type: functional; settings: read-out: Activity
BGC-823 [25] = test: Induction of mitochondrial dysfunction in human BGC-823 cells assessed as […] by measuring reduction in red fluorescence at 0.15 to 0.6 uM incubated for 24 hrs by inverted fluorescent microscopic analysis; type: functional, cell-based; settings: dose 0.15-0.6 µM
MCF7 = test: Antiproliferative activity against human MCF7 cells assessed as cell growth inhibition incubated for 48 hrs by MTT assay; type: functional, cell-based; settings: MCF7, 48 h
BGC-823 [26] = test: Induction of apoptosis in human BGC-823 cells assessed as increase in cleaved PARP expression at 0.15 to 0.6 uM incubated for 24 hrs by Western blot analysis; type: functional, cell-based; settings: dose 0.15-0.6 µM
BGC-823 [27] = test: Induction of apoptosis in human BGC-823 cells assessed as late apoptotic cells at 0.3 uM incubated for 24 hrs by annexin-V-FITC and PI staining based flow cytometry analysis (reference value: 0.6%); type: functional
BGC-823 [28] = test: Induction of cell cycle arrest in human BGC-823 cells assessed as accumulation of cells at S phase at 0.15 uM incubated for 24 hrs by PI staining based flow cytometry method (reference value: 26.01%); type: functional
BGC-823 [29] = test: Induction of apoptosis in human BGC-823 cells assessed as late apoptotic cells at 0.6 uM incubated for 24 hrs by annexin-V-FITC and PI staining based flow cytometry analysis (reference value: 0.6%); type: functional

SMILES: CCOC(=O)c1cnn(CCCOC(=O)[C@]2(C)CC[C@]3(C)CC[C@]4(C)C5=CC=C6C(=CC(=O)C(O)=C6C)[C@]5(C)CC[C@@]4(C)[C@@H]3C2)c1
- Activity (BGC-823 [1]): Active
- Activity (BGC-823 [2]): 1.5%
- Activity (BGC-823 [3]): Active
- Activity (BGC-823 [4]): Active
- Activity (BGC-823 [5]): 48.17%
- inhibition in vivo at 1.5 mg/kg (BGC-823 [6]): 89.8%
- Activity (BGC-823 [7]): 16.5%
- Activity (BGC-823 [8]): 0.2%
- Activity (BGC-823 [9]): 0.5%
- Activity (BGC-823 [10]): Active
- Activity (BGC-823 [11]): 27.71%
- Activity (BGC-823 [12]): 34.73%
- Activity [13]: Non-Toxic
- IC50 (HCT-116): 410 nM
- Activity (BGC-823 [14]): 0.4%
- Activity [15]: Non-Toxic
- Activity (BGC-823 [16]): Active
- Activity (BGC-823 [17]): 23.89%
- inhibition at 0.5 µM (BGC-823 [18]): > 50%
- Activity (BGC-823 [19]): 23.91%
- Activity (BGC-823 [20]): 26%
- viability at 0.6 µM (BGC-823 [21]): 50.9%
- viability at 0.3 µM (BGC-823 [22]): 78.2%
- IC50 (HeLa): 480 nM
- Activity (BGC-823 [23]): Active
- viability at 0.15 µM (BGC-823 [24]): 94.9%
- Activity (BGC-823 [25]): Active
- IC50 (MCF7): 390 nM
- Activity (BGC-823 [26]): Active
- Activity (BGC-823 [27]): 4.8%
- Activity (BGC-823 [28]): 26.07%
- Activity (BGC-823 [29]): 21.7%
